The values below come from patent US8883789B2, “Piperazine derivatives and their use as positive allosteric modulators of mGluR5 receptors” (Boehringer Ingelheim International GmbH, priority 2011, dated 2014).

pEC50: −log10 of the molar value.

T1 sequence (P41594 21-1212): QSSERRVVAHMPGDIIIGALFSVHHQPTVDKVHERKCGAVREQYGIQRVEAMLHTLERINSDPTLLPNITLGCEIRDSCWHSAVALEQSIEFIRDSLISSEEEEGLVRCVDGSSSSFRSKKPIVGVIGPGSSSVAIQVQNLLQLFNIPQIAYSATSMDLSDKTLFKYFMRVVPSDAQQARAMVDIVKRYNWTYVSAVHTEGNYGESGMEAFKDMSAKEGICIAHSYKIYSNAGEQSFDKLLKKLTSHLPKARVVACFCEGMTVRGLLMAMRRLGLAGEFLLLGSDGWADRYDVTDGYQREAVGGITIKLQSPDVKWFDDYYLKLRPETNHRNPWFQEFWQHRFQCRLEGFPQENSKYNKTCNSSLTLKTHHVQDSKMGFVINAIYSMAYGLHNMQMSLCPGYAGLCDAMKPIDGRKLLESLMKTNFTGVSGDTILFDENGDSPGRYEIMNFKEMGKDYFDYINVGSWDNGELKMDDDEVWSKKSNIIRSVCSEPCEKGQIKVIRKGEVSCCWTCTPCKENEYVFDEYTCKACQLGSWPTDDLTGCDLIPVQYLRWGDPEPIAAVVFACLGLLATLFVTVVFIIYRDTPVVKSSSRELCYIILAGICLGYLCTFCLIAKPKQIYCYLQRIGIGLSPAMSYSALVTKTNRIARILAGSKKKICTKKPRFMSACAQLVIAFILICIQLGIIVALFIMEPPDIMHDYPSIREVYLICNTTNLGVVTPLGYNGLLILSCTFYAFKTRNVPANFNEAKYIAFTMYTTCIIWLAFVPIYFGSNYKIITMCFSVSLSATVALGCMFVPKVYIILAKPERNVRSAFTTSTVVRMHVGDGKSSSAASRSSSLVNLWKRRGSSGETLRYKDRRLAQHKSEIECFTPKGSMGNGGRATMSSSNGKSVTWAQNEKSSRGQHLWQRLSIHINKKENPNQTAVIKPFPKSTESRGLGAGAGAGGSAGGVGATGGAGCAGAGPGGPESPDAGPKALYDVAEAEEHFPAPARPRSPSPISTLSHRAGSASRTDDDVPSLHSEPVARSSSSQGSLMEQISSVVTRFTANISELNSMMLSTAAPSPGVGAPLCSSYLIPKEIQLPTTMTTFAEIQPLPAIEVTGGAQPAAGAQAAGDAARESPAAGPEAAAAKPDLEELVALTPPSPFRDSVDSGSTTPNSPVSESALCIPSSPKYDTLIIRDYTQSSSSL

The experiment concerns the target T1, human recombinant mGluR5 (Homo sapiens, UniProt P41594).
T1 construct: expressed in transfected cells; hygromycin and geneticin selection
The experiment in a line: positive modulation of mGluR5, calcium based FLIPR assay. As to conditions: HEK 293 cell line expressing human recombinant mGluR5; Ca2+ peak height after glutamate at approximately 5% basal stimulation; nonlinear regression. The essentials: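 HEK293 cells with tetracycline-free induction, Calcium-4 dye-loaded in Ringer pH 7.4. Compound added 5 min before glutamate at ~5% of maximal effect, 1% DMSO. EC50 from peak Ca2+ fluorescence, normalized to basal glutamate (100%) and 10 μM CDPPB (200%), via nonlinear regression.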
With `Cc1cc(C(=O)N2CCN(C(=O)c3ncn(-c4cccc(F)c4)n3)C(C)(C)C2)oc1C` [Example 174, [4-(4,5-Dimethyl-furan-2-carbonyl)-2,2-dimethyl-piperazin-1-yl]-[1-(3-fluoro-phenyl)-1H-[1,2,4]triazol-3-yl]-methanone], the negative-log EC50 (pEC50) was 6.66. On to `CC1(C)CN(C(=O)c2cccc(Cl)c2)CCN1C(=O)c1nnn(-c2cccc(F)c2)n1` [Example 192], for which the negative-log EC50 (pEC50) was 6.80.

As for `COc1cccc(C(=O)N2CCN(C(=O)c3ncn(-c4cccc(Cl)c4)n3)C(C)(C)C2)c1` [Example 43], the negative logarithm of the EC50 (pEC50) is 7.10.

As for `COc1ccc2c(OC)nc(C(=O)N3CCN(C(=O)c4ncn(-c5cccc(Cl)c5)n4)C(C)(C)C3)cc2c1` [Example 31], the negative logarithm of the EC50 (pEC50) is 6.80.

In the case of `Cc1oc2ccccc2c1C(=O)N1CCN(C(=O)c2ncn(-c3cccc(Cl)c3)n2)C(C)C1` (stereo not shown) [Example 275], the pEC50 is 6.77.

For `CC1(C)CN(C(=O)c2cccc(C(F)(F)F)c2)CCN1C(=O)c1ncn(-c2cccc(Cl)c2)n1` [Example 14], the pEC50 is 7.60. As to `CC1(C)CN(C(=O)c2cccc(Cl)c2)CCN1C(=O)c1ncn(-c2cccc(Cl)c2)n1` [Example 173, [4-(3-Chloro-benzoyl)-2,2-dimethyl-piperazin-1-yl]-[1-(3-chloro-phenyl)-1H-[1,2,4]triazol-3-yl]-methanone], the negative logarithm of the EC50 (pEC50) was 7.72. The value for `CC1(C)CN(C(=O)c2cc3ccccc3c(OCC3CC3)n2)CCN1C(=O)c1ncn(-c2ccccc2)n1` [Example 103] was 7.31.

With `COCc1c(C(=O)N2CCN(C(=O)c3ncn(-c4cccc(Cl)c4)n3)C(C)C2)oc2ccccc12` (stereo not shown) [Example 274], the pEC50 is 6.09. Take `CCOc1cccc(C(=O)N2CCN(C(=O)c3ncn(-c4cccc(Cl)c4)n3)C(C)(C)C2)n1` [Example 62]: the pEC50 was 6.06. The value for `CC1(C)CN(C(=O)c2cc(Cl)c3c(c2)OCCO3)CCN1C(=O)c1nnn(-c2cccc(Cl)c2)n1` [Example 171, [4-(8-Chloro-2,3-dihydro-benzo[1,4]dioxine-6-carbonyl)-2,2-dimethyl-piperazin-1-yl]-[2-(3-chloro-phenyl)-2H-tetrazol-5-yl]-methanone] was 7.25; that for `COc1cc(Cl)cc(C(=O)N2CCN(C(=O)c3ncn(-c4ccccc4)n3)C(C)(C)C2)c1` [Example 121] was 6.91; that for `CC1CN(C(=O)c2ncn(-c3cccc(Cl)c3)n2)CCN1C(=O)c1ccc(Cl)s1` (stereo not shown) [Example 231] was 5.75. The value for `CC1(C)CN(C(=O)c2cccc(C(F)(F)F)c2)CCN1C(=O)c1nnn(-c2ccccc2)n1` [Example 166] was 7.82; that for `COc1ccc2c(C)c(C(=O)N3CCN(C(=O)c4ncn(-c5cccc(Cl)c5)n4)C(C)(C)C3)oc2c1` [Example 47] was 6.74.

As for `CC(C)c1cccc(C(=O)N2CCN(C(=O)c3ncn(-c4cccc(Cl)c4)n3)C(C)(C)C2)c1` [Example 11, [1-(3-Chloro-phenyl)-1H-[1,2,4]-triazol-3-yl]-[4-(3-isopropyl-benzoyl)-2,2-dimethyl-piperazin-1-yl]methanone], the pEC50 was 7.72. Regarding `CC(=O)c1cccc(C(=O)N2CCN(C(=O)c3ncn(-c4ccccc4)n3)C(C)(C)C2)n1` [Example 124], the pEC50 is 6.84. Consider `Cc1c(C(=O)N2CCN(C(=O)c3ncn(-c4cccc(Cl)c4)n3)C(C)(C)C2)oc2ccc(F)cc12` [Example 41], for which the negative logarithm of the EC50 (pEC50) is 6.70.

Turning to `COc1ccc2oc(C)c(C(=O)N3CCN(C(=O)c4ncn(-c5cccc(F)c5)n4)C(C)C3)c2c1` (stereo not shown) [Example 287], the pEC50 is 6.62.

On to `CCC1(CC)CN(C(=O)c2cccc(Cl)c2)CCN1C(=O)c1ncn(-c2ccccc2)n1` [Example 313], for which the negative-log EC50 (pEC50) was 6.03. As to `CCc1ccc(C(=O)N2CCN(C(=O)c3ncn(-c4cccc(Cl)c4)n3)C(C)(C)C2)s1` [Example 83], the negative logarithm of the EC50 (pEC50) is 7.19. In the case of `Cc1cccc(-n2cnc(C(=O)N3CCN(C(=O)c4cc(Cl)c5c(c4)OCCO5)C(C)C3)n2)c1` (stereo not shown) [Example 239], the negative-log EC50 (pEC50) is 6.49. Turning to `COc1cc(Cl)cc(C(=O)N2CCN(C(=O)c3nnn(-c4cccc(Cl)c4)n3)C(C)(C)C2)n1` [Example 172], the pEC50 was 7.59. Take `CC1(C)CN(C(=O)c2cccc(C(F)(F)F)n2)CCN1C(=O)c1nnn(-c2ccccc2)n1` [Example 168]: the pEC50 is 7.82. Take `Cn1nccc1-c1cccc(C(=O)N2CCN(C(=O)c3ncn(-c4cccc(Cl)c4)n3)C(C)(C)C2)n1` [Example 91]: the pEC50 is 6.95.

As to `CC1(C)CN(C(=O)c2c(Cl)nc3sccn23)CCN1C(=O)c1ncn(-c2cccc(Cl)c2)n1` [Example 63], the pEC50 was 7.05. For the compound `COc1cc(C(=O)N2CCN(C(=O)c3ncn(-c4cccc(C)c4)n3)CC2C)ccc1C` (stereo not shown) [Example 235], the pEC50 is 6.50. For `COc1cccc(C(=O)N2[C@H](C)CN(C(=O)c3ncn(-c4cccc(C)c4)n3)C[C@@H]2C)n1` [Example 263, (2R*,6S*)-1-[(6-Methoxypyridin-2-yl)carbonyl]-2,6-dimethyl-4-{[1-(3-methylphenyl)-1H-[1,2,4]-triazol-3-yl]carbonyl}piperazine], the pEC50 was 6.60.

As for `COc1ccnc(C(=O)N2CCN(C(=O)c3ncn(-c4cccc(Cl)c4)n3)C(C)(C)C2)c1` [Example 40], the negative logarithm of the EC50 (pEC50) is 6.07. Turning to `Cc1oc2ccccc2c1C(=O)N1CCN(C(=O)c2ncn(-c3ccccc3)n2)C(C)(C)C1` [Example 106], the pEC50 was 7.05.

As for `Cc1cccc(-n2cnc(C(=O)N3CCN(C(=O)c4oc5ccc(F)cc5c4C)C(C)C3)n2)c1` (stereo not shown) [Example 236], the negative logarithm of the EC50 (pEC50) is 5.79.

Consider `COc1cccc(C(=O)N2CCN(C(=O)c3ncn(-c4cccc(F)c4)n3)CC2C)n1` (stereo not shown) [Example 246], for which the pEC50 was 6.64. On to `Cc1cc(Cl)cc(C(=O)N2CCN(C(=O)c3ncn(-c4cccc(Cl)c4)n3)C(C)(C)C2)n1` [Example 36], for which the pEC50 is 6.42.

For the compound `CC1(C)CN(C(=O)c2cccc(-c3ccn[nH]3)n2)CCN1C(=O)c1ncn(-c2cccc(Cl)c2)n1` [Example 94], the negative-log EC50 (pEC50) is 6.55.
